Test results from US20150297741A1, “BIO-ORTHOGONAL DRUG ACTIVATION” (TAGWORKS PHARMACEUTICALS B.V., priority 2012, published 2015).
Read-outs that look alike come from different tables or passages of the source. One block for each molecule: values may come before it.

How the values were obtained:
[1] = Stability of a TCO compound under various conditions (HPLC-MS/PDA and/or GC-MS); format: physicochemical; conditions: for half-life at 2.3 mM: read-out: Stability of TCO: t1/2
Protocol: The TCO stock solution (10 μL 25 mM; 2.5*10^−7 mol) was added to a solution of the specific condition (100 μL). The mixture was stirred at the specific condition for a certain amount of time, and then the fate of the TCO compound was monitored by HPLC-MS/PDA analysis and/or GC-MS analysis, and an estimation of its stability was made.
(§1) Conditions: A) in acetonitrile with 5 equivalents of pyridine per TCO at 20° C.
B) in acetonitrile with 5 equivalents of DIPEA per TCO at 20° C. C) in acetonitrile with 5 equivalents of piperidine per TCO at 20° C. D) in acetonitrile with 5 equivalents of n-butylamine per TCO at 20° C. E) in acetonitrile with 5 equivalents of 2-mercaptoethanol per TCO at 20° C. F) in tetrahydrofuran with 5 equivalents of triphenylphosphine per TCO at 20° C. G) in acetonitrile with 5 equivalents of DCC per TCO at 20° C. H) in acetonitrile with 5 equivalents of PyBOP per TCO at 20° C. […] J) in chloroform at 20° C. […] L) in chloroform with 1 v % of trifluoroacetic acid at 20° C. M) in chloroform with 10 v % of trifluoroacetic acid at 20° C. N) in chloroform with 33 v % of trifluoroacetic acid at 20° C. Z) in 25% acetonitrile in water at 20° C.

[2] = Tetrazine-induced deprotection (TCO activation) under various conditions
Protocol: In addition, the tetrazine-induced TCO activation was studied under the same conditions. […] In addition to amines, also hydroxy and carboxylic acids form stable conjugates with TCO and can subsequently be cleaved in a range of conditions.
The TCO stock solution (10 μL 25 mM in acetonitrile; 2.5*10^−7 mol) was added to a solution of the specific condition (100 μL). A solution of 3,6-dimethyl-1,2,4,5-tetrazine (8, 20 uL 25 mM in acetonitrile; 5.0*10^−7 mol) was added, and the mixture was stirred at the specific condition for a certain amount of time. The reaction was monitored by HPLC-MS/PDA analysis and/or GC-MS analysis, and the percentage of deprotection was estimated.
as §1
B) in acetonitrile with 5 equivalents of DIPEA per TCO at 20° C. C) in acetonitrile with 5 equivalents of piperidine per TCO at 20° C. D) in acetonitrile with 5 equivalents of n-butylamine per TCO at 20° C. E) in acetonitrile with 5 equivalents of 2-mercaptoethanol per TCO at 20° C. F) in tetrahydrofuran with 5 equivalents of triphenylphosphine per TCO at 20° C. G) in acetonitrile with 5 equivalents of DCC per TCO at 20° C. H) in acetonitrile with 5 equivalents of PyBOP per TCO at 20° C. I) in acetonitrile with 1 v % of formic acid at 20° C. J) in chloroform at 20° C. K) in chloroform with 1 v % of formic acid at 20° C. L) in chloroform with 1 v % of trifluoroacetic acid at 20° C. M) in chloroform with 10 v % of trifluoroacetic acid at 20° C. N) in chloroform with 33 v % of trifluoroacetic acid at 20° C. Z) in 25% acetonitrile in water at 20° C.

[3] = Tetrazine-induced doxorubicin release from Axial-TCO-1-Doxorubicin in serum (HPLC-MS/PDA); parameters: species or system mouse; conditions: 37° C.
Protocol: (§2) In a similar fashion as Example 3, the release of doxorubicin from TCO-1-doxorubucin as induced by tetrazines 1,8,9 in PBS/ACN and in serum was measured.
Serum experiments were conducted as follows:
TCO-1-doxorubucin (6.25×10^−8 mol) was dissolved in DMSO (0.050 mL), and PBS (0.475 mL) was added slowly in aliquots of 0.010 mL, followed by mouse serum (0.475 mL). […] Subsequently, cold MeCN (0.200 mL) was added, followed by centrifugation at 13400 rpm for 5 min. The supernatant was used for further analysis by HPLCMS/PDA analysis to determine the release of doxorubicin.

[4] = Tetrazine-induced doxorubicin release from Axial-TCO-1-Doxorubicin in PBS/MeCN (LCMS)
Protocol: PBS/MeCN (1 mL, 3/1), preheated at 37° C. and TCO-2-doxorubicin (10 μL of a 2.5 mM solution in DMSO, 1 eq.) were added to a preheated injection vial. Tetrazine (10 μL of a 25 mM solution in DMSO, 10 eq.) was added and the vial was vortexed. After incubation for 1 hour at 37° C., the vial was placed in LC-MS autosampler at 10° C. LC-MS analysis was performed using a 5% to 100% H2O/MeCN gradient over 11 minutes with a C18 reverse-phase column at 35° C. A control sample containing only TCO-2-doxorubicin (1 eq), as well as a sample containing only doxorubicin (1 eq.), was analyzed under the same conditions. All tetrazine containing samples were measured twice and the doxorubicin control sample was run after every three other samples during an overnight program. The peak area of released dox was divided by the peak area of TCO-2-doxorubicin or doxorubicin reference signals and multiplied by 100 to calculate the percentage of release. The calculated percentage of release was corrected when it was observed that the TCO-2-doxorubicin was not fully converted to inv-DA adduct(s). This was done by quantification of remaining dox-TCO, but full conversion was almost always observed. Peak areas (used for doxorubin quantification) were determined at A=470-500 nm where characteristic doxorubicin absorption takes place and peak integration was done by hand.
as §2

[5] = with 5 eq. of DIPEA in MeCN for 16 h, 20° C.
[6] = with 5 eq. of HCOOH in MeCN for 16 h, 20° C.
[7] = with 5 eq. of PyBOP in MeCN for 16 h, 20° C.
[8] = with 5 eq. of pyridine in MeCN for 16 h, 20° C.
[9] = 0.1M HCOOH buffer, pH = 2.0 for 2 day, 20° C.
[10] = 0.1M NH3 buffer, pH = 11 for 5 day, 20° C.
[11] = 0.1M NH4OAc buffer, pH = 7.0 for 5 day, 20° C.
[12] = 0.1M NH4OAc buffer, pH = 8.0 for 8 day, 20° C.
[13] = 0.1M NH4OAc buffer, pH = 9.0 for 8 day, 20° C.
[14] = 0.1M NH4OAc buffer, pH = 10.0 for 8 day, 20° C.
[15] = 10% MeCN in H2O at 70° C. for 5 day
[16] = 10% MeCN in H2O for 5 day, 20° C.

Compound: NC1/C=C/CCCCC1NC(=O)Oc1ccccc1 (stereo not shown)
half-life at 2.3 mM ([1]; in PBS buffer, 20° C.): 65 h

Compound: N[C@H]1CC/C=C/CCC1NC(=O)Oc1ccccc1 (stereo partly shown)
Deprotection (%) [2, 5]: 98.8% | Deprotection (%) [2, 6]: 33.9% | Deprotection (%) [2, 7]: 24.4% | Deprotection (%) [2, 8]: 71.7% | half-life at 2.3 mM ([1]; 0.1M NH4OAc buffer, pH = 7.0, 20° C.): 80 h | half-life at 2.3 mM ([1]; 0.1M NH4OAc buffer, pH = 8.0, 20° C.): 17 h | half-life at 2.3 mM ([1]; 0.1M NH4OAc buffer, pH = 9.0, 20° C.): 5.3 h | Stability of TCO: cyclization [1, 5]: 6.7% | Stability of TCO: cyclization [1, 6]: 1.9% | Stability of TCO: cyclization [1, 7]: 5.9% | Stability of TCO: cyclization [1, 8]: 2.6%

Compound: Cc1nnc(C)nn1 [tetrazine 8, 3,6-dimethyl-1,2,4,5-tetrazine]
Doxorubicin release (%) from Axial-TCO-1-Doxorubicin ([3]; 10 equiv. tetrazine, 50% serum, LCMS at 4 h, n = 3): 75 ± 4% | Doxorubicin release (%) from Axial-TCO-1-Doxorubicin ([4]; 10 equiv. tetrazine, 25% MeCN in PBS (PBS/MeCN 3/1), 37° C., LCMS at 4 h, n = 3): 79 ± 3% | release of doxorubicin from TCO-1-doxorubucin, comparison of tetrazines 1, 8, 9 ([4]; PBS/ACN and serum): highest release

Compound: NC1CCCC/C=C/C1NC(=O)Oc1ccccc1 (stereo not shown)
half-life at 2.3 mM ([1]; in PBS buffer, 20° C.): 29 h

Stability of TCO [1, 9]: stable | Stability of TCO: cyclization [1, 10]: < 5% | Stability of TCO [1, 11]: stable | Stability of TCO [1, 12]: stable | Stability of TCO [1, 13]: stable | Stability of TCO [1, 14]: stable | Stability of TCO: cyclization [1, 15]: <5% | Stability of TCO [1, 16]: stable
Compound: COc1cc(COC(=O)NC2CC/C=C/CC[C@@H]2N)cc(OC)c1OC (stereo partly shown)
Deprotection (%) [2, 9]: 0% | Deprotection (%) [2, 10]: 87% | Deprotection (%) [2, 11]: 0% | Deprotection (%) [2, 12]: 0% | Deprotection (%) [2, 13]: 25% | Deprotection (%) [2, 14]: 81% | Deprotection (%) [2, 15]: 50% | Deprotection (%) [2, 16]: 0%

Compound: COc1cccc2c1C(=O)c1c(O)c3c(c(O)c1C2=O)C[C@@](O)(C(=O)CO)C[C@@H]3O[C@H]1CC(NC(=O)O[C@H]2/C=C/CCCCC2)[C@H](O)C(C)O1 (stereo partly shown) [Axial-TCO-1-Doxorubicin]
Doxorubicin release (%) from Axial-TCO-1-Doxorubicin without tetrazine ([3]; no tetrazine, serum (24 h)): 0% | Doxorubicin release (%) from Axial-TCO-1-Doxorubicin without tetrazine ([4]; no tetrazine, 37° C., PBS (72 h), column PBS/MeCN (3/1)): 0%
